Assays:
Format in all cases: in vivo
[1] = tested on: Amaranthus retroflexus; assay: Post-emergence herbicidal action against AMARE; conditions: visual assessment about 3 weeks after treatment
Method in brief: (§1)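 Foliar application at one-leaf stage of formulated test compounds, aqueous spray at 600–800 l/ha with 0.2% wetting agent. Greenhouse, optimal conditions, ~3 weeks; damage scored visually in % relative to untreated plants.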

[2] = tested on: Amaranthus retroflexus; assay: Pre-emergence herbicidal action against AMARE; conditions: visual score after 3 weeks vs untreated controls
Method in brief: (§2)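 Greenhouse pots of sandy loam held seeds covered with soil, onto which the compound was applied before emergence. An aqueous suspension or emulsion of WP or EC was used at 600 to 800 l/ha with 0.2% wetting agent. Percent damage was judged visually at 3 weeks.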

[3] = tested on: Setaria viridis; assay: Post-emergence herbicidal action against SETVI; conditions: visual assessment about 3 weeks after treatment
Method in brief: as §1

[4] = tested on: Abutilon theophrasti; assay: Pre-emergence herbicidal action against ABUTH; conditions: visual score after 3 weeks vs untreated controls
Method in brief: as §2

[5] = tested on: Digitaria sanguinalis; assay: Pre-emergence herbicidal action against DIGSA
Source text: (§3) Seeds of monocotyledonous and dicotyledonous weed plants and crop plants are laid out in sandy loam soil in wood-fiber pots and covered with soil. The compounds of the invention, formulated in the form of wettable powders (WP) or as emulsion concentrates (EC), are then applied to the surface of the covering soil in the form of an aqueous suspension or emulsion at a water application rate equivalent to 600 to 800 l/ha, with addition of 0.2% wetting agent. After the treatment, the pots are placed in a greenhouse and kept under good growth conditions for the trial plants. The damage to the test plants is scored visually after a test period of 3 weeks by comparison with untreated controls (herbicidal activity in percent (%): 100% activity=the plants have died, 0% activity=like control plants). […] The tables below illustrate, in an illustrative manner, the post-emergence herbicidal action of the compounds of the invention, the herbicidal activity being stated in percent.

[6] = tested on: Matricaria inodora; assay: Post-emergence herbicidal action against MATIN; conditions: 20 g/ha, visual assessment about 3 weeks after treatment
Method in brief: as §1

[7] = tested on: Alopecurus myosuroides; assay: Post-emergence herbicidal action against ALOMY
Method in brief: as §1

[8] = tested on: Abutilon theophrasti; assay: Post-emergence herbicidal action against ABUTH
Method in brief: as §1

[9] = tested on: Viola tricolor; assay: Pre-emergence herbicidal action against VIOTR
Method in brief: as §2

[10] = tested on: Matricaria inodora; assay: Pre-emergence herbicidal action against MATIN; conditions: visual score after 3 weeks vs untreated controls
Method in brief: as §2

[11] = tested on: Veronica persica; assay: Post-emergence herbicidal action against VERPE; conditions: 20 g/ha, visual assessment about 3 weeks after treatment
Method in brief: as §1

[12] = tested on: Viola tricolor; assay: Post-emergence herbicidal action against VIOTR
Method in brief: as §1

[13] = tested on: Polygonum convolvulus; assay: Pre-emergence herbicidal action against POLCO
Source text: as §3

[14] = tested on: Echinochloa crus-galli; assay: Pre-emergence herbicidal action against ECHCG; conditions: 80 g/ha; visual score after 3 weeks vs untreated controls
Method in brief: as §2

[15] = tested on: Pharbitis purpurea; assay: Post-emergence herbicidal action against PHBPU; conditions: 20 g/ha, visual assessment about 3 weeks after treatment
Method in brief: as §1

[16] = tested on: Veronica persica; assay: Pre-emergence herbicidal action against VERPE; conditions: 80 g/ha
Method in brief: as §2

[17] = tested on: Alopecurus myosuroides; assay: Pre-emergence herbicidal action against ALOMY; conditions: visual score after 3 weeks vs untreated controls
Method in brief: as §2

[18] = tested on: Setaria viridis; assay: Pre-emergence herbicidal action against SETVI
Method in brief: as §2

[19] = tested on: Echinochloa crus-galli; assay: Post-emergence herbicidal action against ECHCG; conditions: 20 g/ha, visual assessment about 3 weeks after treatment
Method in brief: as §1

[20] = tested on: Avena fatua; assay: Pre-emergence herbicidal action against AVEFA; conditions: 80 g/ha; visual score after 3 weeks vs untreated controls
Source text: as §3

[21] = tested on: Avena fatua; assay: Post-emergence herbicidal action against AVEFA; conditions: 20 g/ha, visual assessment about 3 weeks after treatment
Description: Seeds of monocotyledonous and dicotyledonous weed and crop plants are laid out in sandy loam soil in wood-fiber pots, covered with soil and cultivated in a greenhouse under good growth conditions. 2 to 3 weeks after sowing, the test plants are treated at the one-leaf stage. The compounds of the invention, formulated in the form of wettable powders (WP) or as emulsion concentrates (EC), are then sprayed onto the green parts of the plants in the form of an aqueous suspension or emulsion at a water application rate equivalent to 600 to 800 l/ha, with addition of 0.2% wetting agent. After the test plants have been left to stand in the greenhouse under optimal growth conditions for about 3 weeks, the action of the preparations is assessed visually in comparison to untreated controls (herbicidal action in percent (%): 100% activity=the plants have died, 0% activity=like control plants). […] The tables below illustrate, in an illustrative manner, the post-emergence herbicidal action of the compounds of the invention, the herbicidal activity being stated in percent.

[22] = tested on: Lolium rigidum; assay: Pre-emergence herbicidal action against LOLRI; conditions: 80 g/ha
Source text: as §3

Row | Structure (SMILES) | Post-emergence action against AMARE in % ([1]; 5 g/ha) [%] | Post-emergence action against AMARE in % ([1]; 20 g/ha) [%] | Pre-emergence action against AMARE ([2]; 20 g/ha) [%] | Pre-emergence action against AMARE ([2]; 80 g/ha) [%] | Post-emergence action against SETVI in % ([3]; 20 g/ha) [%] | Pre-emergence action against ABUTH ([4]; 20 g/ha) [%] | Pre-emergence action against ABUTH ([4]; 80 g/ha) [%] | Post-emergence action against ALOMY ([7]; 20 g/ha) [%] | Post-emergence action against ABUTH ([8]; 5 g/ha) [%] | Post-emergence action against ABUTH ([8]; 20 g/ha) [%] | Pre-emergence action against VIOTR ([9]; 80 g/ha) [%] | Pre-emergence action against MATIN ([10]; 20 g/ha) [%] | Pre-emergence action against MATIN ([10]; 80 g/ha) [%] | Post-emergence action against VIOTR in % ([12]; 20 g/ha) [%] | Pre-emergence action against ECHCG [14] [%] | Post-emergence action against PHBPU in % [15] [%] | Pre-emergence action against ALOMY ([17]; 80 g/ha) [%] | Pre-emergence action against SETVI ([18]; 80 g/ha) [%] | Post-emergence action against ECHCG in % [19] [%] | Post-emergence action against ALOMY ([7]; 5 g/ha) [%] | other results
1 | CN(CC(F)F)C(=O)c1c(C(F)(F)F)ccc(C(=O)Nc2nnnn2C)c1Cl [Example 1-128] | 100 | 100 | 100 | 100 | 90 | 100 | 100 | 80 | 80 | 90 | 100 | 80 | 90 | 100 | 100 | 90 | 100 | 100 |  |  | Pre-emergence action against DIGSA ([5]; 20 g/ha): 100%; Pre-emergence action against DIGSA ([5]; 80 g/ha): 100%; Post-emergence action against MATIN in % [6]: 80%; Pre-emergence action against VIOTR ([9]; 20 g/ha): 100%; Post-emergence action against VERPE in % [11]: 90%; Post-emergence action against VIOTR in % ([12]; 5 g/ha): 90%; Pre-emergence action against POLCO ([13]; 20 g/ha): 80%; Pre-emergence action against POLCO ([13]; 80 g/ha): 80%; Pre-emergence action against VERPE [16]: 100%; Pre-emergence action against SETVI ([18]; 20 g/ha): 90%
2 | CN(C)C(=O)c1c(Br)ccc(C(=O)Nc2nnnn2C)c1Cl [Example 1-191] | 100 | 100 |  | 100 | 100 | 100 | 100 | 100 | 80 | 90 | 100 | 80 | 100 |  | 90 |  | 100 | 100 | 100 | 80 | Pre-emergence action against AVEFA [20]: 90%; Post-emergence action against AVEFA in % [21]: 90%; Pre-emergence action against LOLRI [22]: 80%; Pre-emergence action against VERPE [16]: 90%; Pre-emergence action against ALOMY ([17]; 20 g/ha): 90%
3 | CCN(C)C(=O)c1c(Br)ccc(C(=O)Nc2nnnn2C)c1Cl [Example 1-192] | 100 | 100 | 80 | 100 | 100 | 80 | 100 | 100 | 90 | 90 | 100 |  | 100 | 80 | 80 | 80 | 100 | 100 | 100 | 90 | Post-emergence action against SETVI in % ([3]; 5 g/ha): 100%; Pre-emergence action against AVEFA [20]: 80%; Pre-emergence action against LOLRI [22]: 80%
4 | CCN(C(=O)c1c(C(F)F)ccc(C(=O)Nc2nnnn2CC)c1Cl)C1CC1 [Example 2-167] | 100 | 100 | 100 | 100 | 90 | 100 | 100 | 100 | 90 | 90 | 100 | 100 | 100 | 100 | 90 | 90 | 100 | 100 | 90 | 80 | Post-emergence action against SETVI in % ([3]; 5 g/ha): 90%; Post-emergence action against MATIN in % [6]: 80%; Pre-emergence action against VIOTR ([9]; 20 g/ha): 80%; Post-emergence action against AVEFA in % [21]: 80%; Post-emergence action against VERPE in % [11]: 80%; Pre-emergence action against LOLRI [22]: 80%
5 | CCN(C)C(=O)c1c(Br)ccc(C(=O)Nc2nnnn2CC)c1Cl [Example 2-192] | 100 | 100 | 100 | 100 | 100 | 100 | 100 | 100 | 80 | 80 | 100 | 100 | 100 | 100 | 90 | 80 | 100 | 100 | 100 | 80 | Post-emergence action against SETVI in % ([3]; 5 g/ha): 100%; Pre-emergence action against AVEFA [20]: 80%; Post-emergence action against AVEFA in % [21]: 80%; Pre-emergence action against LOLRI [22]: 80%; Pre-emergence action against VERPE [16]: 80%

— US12599136B2, “Substituted isophthalic acid diamides and their use as herbicides” (Bayer Aktiengesellschaft, priority 2020, dated 2026)
